Reference: patent publication US10045980B2, “Inhibitor of p38 map kinase” (RESPIVERT LTD, priority 2014, dated 2018)
Counter-ions that a name gives are not always drawn.

What was measured:
[1] = Dynamic vapour sorption (DVS); format: physicochemical; conditions: 25° C., RH 0-95%
Method: About 20 mg of test compound was transferred into a SMS dynamic vapor sorption and record the weight change with respect to the atmospheric humidity at 25° C.
The following parameters were used:
drying: 60 min. under dry nitrogen
equilibrium: 60 min/Step.

[2] = Chemical stability testing, degradation by UPLC; format: physicochemical; conditions: stored up to 30 days, 50-80° C./10-75% RH; data not shown
Method: Samples were extracted with solvent mixture (DMSO/water 80:20) (7 mL) in a 10 mL vial.
UPLC chromatography was performed using the following parameters:
Analysis run time: 36 min Data collection time: 30 min Injection volume: 5 μL Wavelength: scan between 200 and 400 nm Wavelength used for content uniformity calculations: 334.0 nm
The compositions of Examples 4d, 4e, 4f, 4g, 4h and 4i were stored for 14 and 30 days under conditions of 50° C./75% RH, 60° C./30% RH, 60° C./50% RH, 70° C./10% RH, 70° C./75% RH and 80° C./50% RH.

[3] = test system: sputum macrophages from COPD patients; assay: Cytokine production in LPS-treated sputum macrophages from COPD patients; format: cell-based; conditions: Homo sapiens, Macrophage; at 0.1 μg/mL; LPS 1 μg/mL, 18 h; read-out: Percent Inhibition IL-6
Method: Patients with COPD inhaled a nebulised solution of 3% (w/v) hypertonic saline using an ultrasonic nebuliser (Devilbiss, Carthage, Mo.) with tidal breathing for 5 min. This procedure was repeated a maximum of three times until enough sputum was obtained. The sputum samples were homogenized and mixed vigorously using a vortex mixer in 0.02% v/v dithiothreitol (DTT) solution. The samples were re-suspended in PBS (40 mL) followed by centrifugation at 1500 rpm at 4° C. for 10 min to obtain sputum cell pellets. The pellets were washed with PBS (40 mL). […]
Where appropriate, 1 μL of a solution containing either the test compound or reference article at the stated concentrations (either 0.1 μg/mL, 0.01 μg/mL, or 0.001 μg/mL) or alternatively 1 μL of DMSO as the vehicle control was added to each well (200 μL in media) and the cells were incubated for 2 h. […] After washing with 200 μL wash buffer per well, the beads were resuspended in sheath fluid (150 μL) and analyzed immediately. The level of each analyte in the supernatant was calculated using Xcel Fit software with a 4 or 5-parameter equation using each standard curve. The inhibitions of each cytokine production were calculated at each concentration by comparison with vehicle control.

BEAS2B cells = assay: Poly I:C-induced ICAM-1 expression in BEAS2B cells; format: cell-based; conditions: Homo sapiens, BEAS-2B, 18 h after poly I:C transfection, read-out: PolyIC/ICAM1 IC50 (BEAS2B)
Method: Poly I:C was used in these studies as a simple, RNA virus mimic. Poly I:C-Oligofectamine mixture (2% Oligofectamine±1 μg/mL Poly I:C, 25 μL; Life Technologies and Invivogen Ltd., San Diego, Calif., respectively) was transfected into BEAS2B cells (human bronchial epithelial cells, ATCC). Cells were pre-incubated with final concentrations of test compounds for 2 h and the level of ICAM-1 expression on the cell surface was determined by cell-based ELISA. […]
The cells were washed with PBS-Tween (3×200 μL) and incubated with the secondary antibody (100 μL; HRP-conjugated anti-rabbit IgG, Dako Ltd., Glostrup, Denmark). […] The ICAM-1 signal was detected by reading the absorbance at 450 nm against a reference wavelength of 655 nm using a spectrophotometer. The cells were then washed with PBS-Tween (3×200 μL) and total cell numbers in each well were determined by reading absorbance at 595 nm after Crystal Violet staining (50 μL of a 2% solution in PBS) and elution by 1% SDS solution (100 μL) in PBS. The measured OD 450-655 readings were corrected for cell number by dividing with the OD595 reading in each well. The inhibition of ICAM-1 expression was calculated at each concentration of test compound by comparison with vehicle control.

## CCc1cncc(Nc2cc(COc3ccc(NC(=O)Nc4cc(C(C)(C)C)nn4-c4ccc(C)cc4)c4ccccc34)ccn2)n1 [Example 2A, 1-(3-(tert-butyl)-1-(p-tolyl)-1H-pyrazol-5-yl)-3-(4-((2-((6-ethylpyrazin-2-yl)amino)pyridin-4-yl)methoxy)naphthalen-1-yl)urea maleate (Form 2)]
[1]
  hygroscopicity (DVS): does not appear to be hygroscopic
[1]; listed as Example 3B
  hygroscopicity (DVS): appeared not to be hygroscopic
[2]
  percentage of total degradation, unmicronised and unblended material: always lower than that for the free base

## CCC(=O)O[C@]1(C(=O)SCF)[C@H](C)C[C@H]2[C@@H]3C[C@H](F)C4=CC(=O)C=C[C@]4(C)[C@@]3(F)[C@@H](O)C[C@@]21C [Fluticasone propionate, fluticasone propionate, reference compound]
[3]
  inhibition at 0.1 µg/mL: 29 ± 21%

## COCC(=O)Nc1cc(Oc2ccc(NC(=O)Nc3cc(C(C)(C)C)nn3-c3ccc(C)cc3)c3ccccc23)ccn1 [Reference Compound, N-(4-(4-(3-(3-tert-Butyl-1-p-tolyl-1H-pyrazol-5-yl)ureido)naphthalen-1-yloxy)pyridin-2-yl)-2-methoxyacetamide, reference compound]
BEAS2B cells
  IC50: 3.8 nM
